From ChEMBL document CHEMBL1152560, “Substituted 2-arylbenzothiazoles as kinase inhibitors: hit-to-lead optimization” (Bioorg Med Chem, 2009) come the findings set out here.

SMILES strings stand for the structures.

Assay [1] concerns the target T1, Serine/threonine-protein kinase D2 (Homo sapiens) (UniProt Q9BZL6).
T1 sequence (whole entry): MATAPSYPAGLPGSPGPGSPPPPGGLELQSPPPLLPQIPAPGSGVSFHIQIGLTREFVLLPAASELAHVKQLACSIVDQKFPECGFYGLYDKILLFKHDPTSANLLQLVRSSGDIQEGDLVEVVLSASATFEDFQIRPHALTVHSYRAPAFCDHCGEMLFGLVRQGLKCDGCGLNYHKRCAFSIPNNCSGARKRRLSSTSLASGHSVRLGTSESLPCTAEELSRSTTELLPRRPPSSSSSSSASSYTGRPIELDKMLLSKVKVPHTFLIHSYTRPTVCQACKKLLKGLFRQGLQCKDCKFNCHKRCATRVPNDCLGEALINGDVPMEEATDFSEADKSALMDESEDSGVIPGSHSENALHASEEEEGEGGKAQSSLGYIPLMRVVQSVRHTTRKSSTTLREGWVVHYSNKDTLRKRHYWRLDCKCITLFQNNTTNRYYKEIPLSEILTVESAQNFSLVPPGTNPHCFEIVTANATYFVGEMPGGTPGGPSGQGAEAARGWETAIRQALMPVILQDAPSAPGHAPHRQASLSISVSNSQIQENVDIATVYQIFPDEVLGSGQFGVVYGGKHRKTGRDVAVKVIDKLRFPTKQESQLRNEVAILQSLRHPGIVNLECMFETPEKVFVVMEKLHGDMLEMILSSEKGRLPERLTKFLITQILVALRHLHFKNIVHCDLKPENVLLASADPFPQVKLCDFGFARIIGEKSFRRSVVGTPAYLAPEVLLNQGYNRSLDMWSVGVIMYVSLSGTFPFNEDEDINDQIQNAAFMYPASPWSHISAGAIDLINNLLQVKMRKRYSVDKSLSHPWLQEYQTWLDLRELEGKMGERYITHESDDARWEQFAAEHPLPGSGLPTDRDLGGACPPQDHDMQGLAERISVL
Kind of assay: Residual activity of PRKD2 at 0.1 uM by microplate scintillation counting.

For assay [2], the target named is Serine/threonine-protein kinase PAK 6 (Homo sapiens) (UniProt Q9NQU5). The assay can be described thus: Residual activity of PAK6 at 0.1 uM by microplate scintillation counting.
For assay [3], the target named is Proto-oncogene tyrosine-protein kinase ROS (Homo sapiens) (UniProt P08922). The assay can be described thus: Residual activity of ROS at 10 uM by microplate scintillation counting.
The target in assay [4] is T2, Serine/threonine-protein kinase D1 (Homo sapiens) (UniProt Q15139).
T2 sequence (whole entry): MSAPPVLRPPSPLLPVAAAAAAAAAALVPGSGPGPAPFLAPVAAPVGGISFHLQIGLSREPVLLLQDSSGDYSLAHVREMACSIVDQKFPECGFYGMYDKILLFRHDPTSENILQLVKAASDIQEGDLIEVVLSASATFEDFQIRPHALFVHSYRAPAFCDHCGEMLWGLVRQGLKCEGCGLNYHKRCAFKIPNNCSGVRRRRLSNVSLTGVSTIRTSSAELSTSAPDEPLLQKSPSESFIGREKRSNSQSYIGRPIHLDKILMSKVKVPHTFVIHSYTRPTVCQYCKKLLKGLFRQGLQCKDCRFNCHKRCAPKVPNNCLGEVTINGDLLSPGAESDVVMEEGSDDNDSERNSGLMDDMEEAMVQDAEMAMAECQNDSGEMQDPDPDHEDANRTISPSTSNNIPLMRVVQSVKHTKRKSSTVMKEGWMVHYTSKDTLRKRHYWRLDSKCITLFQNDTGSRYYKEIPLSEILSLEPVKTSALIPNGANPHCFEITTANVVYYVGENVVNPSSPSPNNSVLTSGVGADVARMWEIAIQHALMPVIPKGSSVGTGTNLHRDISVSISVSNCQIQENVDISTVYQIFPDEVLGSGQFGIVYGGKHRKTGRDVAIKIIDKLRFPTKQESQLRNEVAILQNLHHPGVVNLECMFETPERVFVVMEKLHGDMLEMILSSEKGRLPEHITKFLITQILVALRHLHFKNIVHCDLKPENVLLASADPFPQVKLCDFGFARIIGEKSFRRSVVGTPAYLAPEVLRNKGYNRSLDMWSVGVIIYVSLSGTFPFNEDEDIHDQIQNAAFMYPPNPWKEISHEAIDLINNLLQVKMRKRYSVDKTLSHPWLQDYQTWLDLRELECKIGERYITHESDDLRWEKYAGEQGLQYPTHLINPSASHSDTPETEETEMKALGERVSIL
The assay can be described thus: Residual activity of PKCmu at 10 uM by microplate scintillation counting.

Assay [5] deals with T3, Tyrosine-protein kinase ITK/TSK (Homo sapiens) (UniProt Q08881).
T3 sequence (whole entry): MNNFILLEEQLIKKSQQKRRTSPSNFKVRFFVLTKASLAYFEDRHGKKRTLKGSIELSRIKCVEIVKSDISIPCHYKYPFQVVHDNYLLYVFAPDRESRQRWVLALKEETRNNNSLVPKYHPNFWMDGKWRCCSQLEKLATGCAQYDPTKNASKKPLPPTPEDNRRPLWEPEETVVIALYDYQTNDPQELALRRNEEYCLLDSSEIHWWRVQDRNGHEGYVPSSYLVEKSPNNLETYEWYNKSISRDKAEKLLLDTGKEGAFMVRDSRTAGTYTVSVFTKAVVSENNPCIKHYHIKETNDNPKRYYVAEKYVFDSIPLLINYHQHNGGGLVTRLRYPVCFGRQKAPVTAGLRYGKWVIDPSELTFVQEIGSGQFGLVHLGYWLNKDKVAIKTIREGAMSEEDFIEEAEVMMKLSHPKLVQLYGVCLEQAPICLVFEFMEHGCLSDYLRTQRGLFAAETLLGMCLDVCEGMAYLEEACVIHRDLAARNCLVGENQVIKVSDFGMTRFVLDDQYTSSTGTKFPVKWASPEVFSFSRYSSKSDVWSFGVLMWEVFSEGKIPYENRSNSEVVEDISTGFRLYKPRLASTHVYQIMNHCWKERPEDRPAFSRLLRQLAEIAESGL
Kind of assay: Residual activity of ITK at 0.1 uM by microplate scintillation counting.

Assay [6] concerns the target Serine/threonine-protein kinase PAK 1 (Homo sapiens) (UniProt Q13153). Kind of assay: Residual activity of PAK1 at 10 uM by microplate scintillation counting.
The target of assay [7] is CDK1/Cyclin A (Homo sapiens) (UniProt P06493+P20248). Kind of assay: Residual activity of CDK1/Cyclin A at 10 uM by microplate scintillation counting. It is filed as protein-complex assay.
The test system of assay [8] is Mast/stem cell growth factor receptor Kit (Homo sapiens), P10721 [T670I]. The assay can be described thus: Residual activity of KIT T670I mutant at 1 uM by microplate scintillation counting.
For assay [9], the target named is Cyclin-dependent kinase 2/cyclin A (Homo sapiens) (UniProt P24941+P20248+P78396). Kind of assay: Residual activity of CDK2/Cyclin A at 0.1 uM by microplate scintillation counting. It is filed as protein-complex assay.
Assay [10] concerns the target Serine/threonine-protein kinase PLK3 (Homo sapiens) (UniProt Q9H4B4). The assay can be described thus: Residual activity of PLK3 at 0.1 uM by microplate scintillation counting.

Sequence of Serine/threonine-protein kinase PAK 6 (Homo sapiens) (Q9NQU5 whole entry, looked up): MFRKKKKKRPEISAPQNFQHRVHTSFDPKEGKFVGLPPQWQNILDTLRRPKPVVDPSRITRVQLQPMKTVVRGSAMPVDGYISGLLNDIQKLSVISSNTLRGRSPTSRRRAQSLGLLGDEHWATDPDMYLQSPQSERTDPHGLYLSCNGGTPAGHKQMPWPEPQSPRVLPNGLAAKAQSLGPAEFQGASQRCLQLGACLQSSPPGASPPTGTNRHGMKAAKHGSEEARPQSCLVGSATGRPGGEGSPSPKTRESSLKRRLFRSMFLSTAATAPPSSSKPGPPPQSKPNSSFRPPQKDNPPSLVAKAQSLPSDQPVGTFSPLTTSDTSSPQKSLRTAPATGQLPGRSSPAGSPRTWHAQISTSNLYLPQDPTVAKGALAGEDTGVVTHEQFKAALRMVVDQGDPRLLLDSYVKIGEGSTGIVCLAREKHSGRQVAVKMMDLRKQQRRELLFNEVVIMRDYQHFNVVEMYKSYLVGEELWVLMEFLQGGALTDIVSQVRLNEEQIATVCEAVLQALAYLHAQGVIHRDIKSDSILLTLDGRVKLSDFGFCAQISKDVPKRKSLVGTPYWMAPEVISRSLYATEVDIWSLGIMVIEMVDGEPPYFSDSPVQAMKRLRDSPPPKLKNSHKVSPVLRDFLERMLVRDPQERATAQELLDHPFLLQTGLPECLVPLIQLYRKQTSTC
Sequence of Mast/stem cell growth factor receptor Kit (Homo sapiens), P10721 [T670I] (P10721 whole entry T670I): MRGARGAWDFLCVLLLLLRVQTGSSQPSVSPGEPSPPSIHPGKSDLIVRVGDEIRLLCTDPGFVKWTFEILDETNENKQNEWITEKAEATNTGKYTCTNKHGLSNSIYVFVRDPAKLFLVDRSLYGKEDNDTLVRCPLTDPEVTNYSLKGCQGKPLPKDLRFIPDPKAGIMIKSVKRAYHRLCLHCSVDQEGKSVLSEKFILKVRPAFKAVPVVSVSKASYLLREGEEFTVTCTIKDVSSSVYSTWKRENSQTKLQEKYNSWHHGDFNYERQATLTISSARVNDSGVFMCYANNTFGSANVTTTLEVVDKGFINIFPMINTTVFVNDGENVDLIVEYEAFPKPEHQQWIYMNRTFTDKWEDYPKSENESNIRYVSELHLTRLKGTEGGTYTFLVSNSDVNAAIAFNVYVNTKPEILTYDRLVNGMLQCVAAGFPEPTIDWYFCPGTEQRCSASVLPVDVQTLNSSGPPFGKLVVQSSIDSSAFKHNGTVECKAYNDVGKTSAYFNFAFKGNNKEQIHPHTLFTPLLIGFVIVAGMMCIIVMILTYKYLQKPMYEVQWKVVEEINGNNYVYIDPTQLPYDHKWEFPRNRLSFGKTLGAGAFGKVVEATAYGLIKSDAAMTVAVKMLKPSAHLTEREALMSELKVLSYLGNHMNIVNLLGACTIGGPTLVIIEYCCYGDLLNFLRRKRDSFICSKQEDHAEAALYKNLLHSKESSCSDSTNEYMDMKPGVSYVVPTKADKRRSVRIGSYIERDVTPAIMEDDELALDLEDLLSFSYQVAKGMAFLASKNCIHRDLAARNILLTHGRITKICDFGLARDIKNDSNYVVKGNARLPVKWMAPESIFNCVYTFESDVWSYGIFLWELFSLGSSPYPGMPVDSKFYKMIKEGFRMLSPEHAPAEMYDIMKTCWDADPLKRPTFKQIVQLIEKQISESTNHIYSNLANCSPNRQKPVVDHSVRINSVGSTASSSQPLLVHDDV
Sequence of Proto-oncogene tyrosine-protein kinase ROS (Homo sapiens) (P08922 whole entry): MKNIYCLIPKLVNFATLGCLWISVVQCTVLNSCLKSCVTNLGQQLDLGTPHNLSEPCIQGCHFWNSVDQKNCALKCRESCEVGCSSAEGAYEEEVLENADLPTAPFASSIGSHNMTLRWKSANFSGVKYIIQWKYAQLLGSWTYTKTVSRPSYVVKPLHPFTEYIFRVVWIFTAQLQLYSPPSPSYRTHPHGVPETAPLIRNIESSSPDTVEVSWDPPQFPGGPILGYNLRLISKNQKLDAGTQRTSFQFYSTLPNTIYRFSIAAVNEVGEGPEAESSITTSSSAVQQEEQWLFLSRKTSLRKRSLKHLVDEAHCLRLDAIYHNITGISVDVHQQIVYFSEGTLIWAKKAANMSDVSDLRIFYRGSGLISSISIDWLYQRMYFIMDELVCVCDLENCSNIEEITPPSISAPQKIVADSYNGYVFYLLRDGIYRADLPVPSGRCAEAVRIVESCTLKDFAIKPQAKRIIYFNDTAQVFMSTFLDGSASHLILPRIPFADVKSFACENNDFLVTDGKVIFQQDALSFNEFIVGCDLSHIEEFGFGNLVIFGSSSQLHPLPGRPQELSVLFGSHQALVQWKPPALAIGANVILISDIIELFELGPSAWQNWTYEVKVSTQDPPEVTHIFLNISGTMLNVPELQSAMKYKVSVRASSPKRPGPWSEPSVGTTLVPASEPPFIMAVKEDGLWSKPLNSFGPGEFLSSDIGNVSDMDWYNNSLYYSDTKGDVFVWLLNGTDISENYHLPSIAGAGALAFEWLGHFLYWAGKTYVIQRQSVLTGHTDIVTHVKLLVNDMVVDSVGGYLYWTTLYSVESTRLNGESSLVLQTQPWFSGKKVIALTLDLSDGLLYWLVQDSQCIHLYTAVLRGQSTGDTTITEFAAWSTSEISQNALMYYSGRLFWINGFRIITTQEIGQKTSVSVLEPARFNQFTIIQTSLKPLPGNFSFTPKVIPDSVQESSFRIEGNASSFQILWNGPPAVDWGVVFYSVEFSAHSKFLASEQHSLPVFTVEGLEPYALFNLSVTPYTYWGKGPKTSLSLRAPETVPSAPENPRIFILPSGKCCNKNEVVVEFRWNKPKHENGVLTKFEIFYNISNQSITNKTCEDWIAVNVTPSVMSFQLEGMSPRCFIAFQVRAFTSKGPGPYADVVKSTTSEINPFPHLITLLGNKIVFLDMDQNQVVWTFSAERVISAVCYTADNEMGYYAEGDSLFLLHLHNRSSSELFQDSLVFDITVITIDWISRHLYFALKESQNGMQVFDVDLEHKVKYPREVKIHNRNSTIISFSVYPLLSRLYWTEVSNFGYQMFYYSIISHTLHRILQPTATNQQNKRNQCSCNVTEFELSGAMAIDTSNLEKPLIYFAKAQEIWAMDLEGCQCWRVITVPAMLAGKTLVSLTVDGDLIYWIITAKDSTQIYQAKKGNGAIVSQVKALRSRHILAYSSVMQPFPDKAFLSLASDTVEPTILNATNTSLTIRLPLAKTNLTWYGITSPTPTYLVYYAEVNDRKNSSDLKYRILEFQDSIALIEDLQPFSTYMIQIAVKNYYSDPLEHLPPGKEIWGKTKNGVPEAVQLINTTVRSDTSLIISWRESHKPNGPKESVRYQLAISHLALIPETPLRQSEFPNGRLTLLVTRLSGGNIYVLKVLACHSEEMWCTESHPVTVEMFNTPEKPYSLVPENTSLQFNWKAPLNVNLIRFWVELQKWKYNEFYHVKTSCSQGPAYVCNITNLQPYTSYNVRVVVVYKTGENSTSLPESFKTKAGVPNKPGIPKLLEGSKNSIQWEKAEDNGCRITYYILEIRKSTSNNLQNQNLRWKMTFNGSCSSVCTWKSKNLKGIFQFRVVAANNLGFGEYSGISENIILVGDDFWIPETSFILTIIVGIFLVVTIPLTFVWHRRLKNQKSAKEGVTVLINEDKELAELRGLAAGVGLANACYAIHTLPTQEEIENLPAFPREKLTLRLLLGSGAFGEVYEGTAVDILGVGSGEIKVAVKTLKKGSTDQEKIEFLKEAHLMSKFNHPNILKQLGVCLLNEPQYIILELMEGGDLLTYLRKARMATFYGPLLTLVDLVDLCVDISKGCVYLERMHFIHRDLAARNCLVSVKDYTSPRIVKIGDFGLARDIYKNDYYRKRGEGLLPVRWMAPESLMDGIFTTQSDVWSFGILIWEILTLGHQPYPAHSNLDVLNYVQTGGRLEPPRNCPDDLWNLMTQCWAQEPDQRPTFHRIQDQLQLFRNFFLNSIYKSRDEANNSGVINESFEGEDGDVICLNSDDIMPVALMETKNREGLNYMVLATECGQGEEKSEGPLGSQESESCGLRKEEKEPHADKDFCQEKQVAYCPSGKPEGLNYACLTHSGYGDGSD
Sequence of CDK1/Cyclin A (Homo sapiens) (P06493 whole entry, looked up): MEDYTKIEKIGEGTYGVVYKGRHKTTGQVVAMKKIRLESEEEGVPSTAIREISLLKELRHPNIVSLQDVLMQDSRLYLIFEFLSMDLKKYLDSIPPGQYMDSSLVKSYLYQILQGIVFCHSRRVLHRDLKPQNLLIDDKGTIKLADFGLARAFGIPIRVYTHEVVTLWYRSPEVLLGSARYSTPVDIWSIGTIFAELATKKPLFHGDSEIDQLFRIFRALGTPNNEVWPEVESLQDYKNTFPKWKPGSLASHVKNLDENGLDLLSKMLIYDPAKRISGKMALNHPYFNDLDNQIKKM
Sequence of CDK1/Cyclin A (Homo sapiens) (P20248 whole entry, looked up): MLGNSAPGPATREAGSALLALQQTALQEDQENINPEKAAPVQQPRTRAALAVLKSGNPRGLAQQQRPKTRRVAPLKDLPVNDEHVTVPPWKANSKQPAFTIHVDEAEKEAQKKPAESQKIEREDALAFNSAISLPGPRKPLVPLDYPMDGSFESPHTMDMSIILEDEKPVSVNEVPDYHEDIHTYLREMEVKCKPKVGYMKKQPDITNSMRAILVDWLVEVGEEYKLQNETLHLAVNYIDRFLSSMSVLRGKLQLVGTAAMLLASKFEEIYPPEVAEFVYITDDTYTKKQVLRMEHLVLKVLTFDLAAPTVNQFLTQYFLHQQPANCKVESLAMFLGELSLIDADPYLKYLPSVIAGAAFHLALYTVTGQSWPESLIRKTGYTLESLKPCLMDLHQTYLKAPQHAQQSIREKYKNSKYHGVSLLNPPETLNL

Broadly, the residual activity is the signal under treatment as a percentage of the control signal. As to `COc1cc2c(Oc3ccc(-c4nc5ccccc5s4)cc3)ncnc2cc1OCCCN1CCN(C)CC1`, the residual activity in assay [1] is 82%; in [2], 69%; in [3] it was 47%; in [4], 122%; in assay [5], 99%; in [6], 68%. Besides, the residual activity was 129% in assay [7], 73% in assay [8], 94% in assay [9] and 88% in assay [10].
Consider `COc1cc2c(Oc3ccc(-c4nc5ccccc5s4)cc3)ncnc2cc1OCCCN1CCCC1`, for which the residual activity in assay [1] is 89%; in assay [2], 99%; in assay [3], 54%; in assay [4], 126%; in assay [5], 98%; in assay [6], 69%. In addition, the residual activity in [7] stood at 117%; in assay [8] it was 73%; in assay [9] it was 96%; in [10], 87%.
As to `COc1cc2c(Oc3ccc(-c4nc5ccccc5s4)cc3F)ncnc2cc1OCCCN1CCN(C)CC1`, the residual activity in assay [1] was determined as 95%; in [2], 98%; in [3], 38%; in assay [4], 111%; in assay [5], 107%; in assay [6] it was 57%. In addition, the residual activity in assay [7] stood at 112%; in assay [8], 65%; in [9] it was 100%; in assay [10] it was 87%.
